Measured values from patent publication US20210371459A1, “DIMERIC PEPTIDE INHIBITORS OF APOPTOSIS PROTEINS” (Hepagene Therapeutics (HK) Limited, priority 2017, published 2021).

Experiments:
Settings in all cases: FP, probe AbuRPFK-5FAM, 60 min at 25° C.
XIAP-BIR3 = target: T1, XIAP-BIR3 (Homo sapiens, UniProt P98170); assay: XIAP-BIR3 fluorescence polarization binding assay
T1 construct: purchased Reaction Biology APT-11-374
Source text: (§1) IAPs are one main cause of cancer development and may result from overexpression of anti-apoptotic proteins. This protocol establishes three binding assays for XIAP Bir3 domain, cIAP1 and cIAP2 using FP (Fluorescence polarization) technology. The fluorescence probe used is a synthetic peptide conjugated to 5-carboxyfluorescein (AbuRPFK-5FAM). The fluorescence polarization value (mP) was detected by Envision, which was used to reflect the binding degree of protein and fluorescent marker. Reagents and equipment used in the assay are listed below, followed by the protocol.
(§2) • a) Prepare 100 times of the final cpd concentration in appropriate tube and transfer 5 uL compound (“cpd”) to 45 μL 1× reaction buffer with 10% DMSO. • b) The final reference cpd concentration is 10000, 3333.3, 1111.1, 370.4, 123.4, 41.2, 13.7, 4.57, 1.52, 0.51, 0.17 and 0 nM. So the 100 times of the concentration is 1000, 333.3, 111.1, 37.04, 12.34, 4.12, […], 0.15, 0.05, 0.017 and 0 μM. The final test cpds concentration is 3333.3, 1111.1, 370.4, 123.4, 41.2, 13.7, 4.57, 1.52, 0.51, 0.17, 0.057 and 0 nM. So the 100 times of the concentration is 333.3, 111.1, 37.04, 12.34, 4.12, […], 0.15, 0.05, 0.017, 0.0057 and 0 μM • c) Add 8 μL/well each dose enzyme to 384 well microplate (ProxiPlate-384 F Plus, 6008260) using multichannel pipette, prepared in step 2.1.1.2 • d) Centrifuge at 1000 rpm. • e) Add 2 μL/well cpd to 384 well microplate (ProxiPlate-384 F Plus, 6008260) using multichannel pipette, prepared in step a). • f) Centrifuge at 1000 rpm. RT, 15 min. • g) Start the assay by adding 10 uL/well substrate (prepared in step 2.1.1.3) to the same 384 well microplate using multichannel pipette • h) Centrifuge at 1000 rpm. • i) Cover the assay plate and incubate for 60 min at 25° C. • j) Read on Envision 2104 for mP and plot the IC50s with mP values. • k) Data analysis: IC50s were determined based on a non-linear regression analysis of data collected.

cIAP1-BIR3 = target: T2, cIAP1-BIR3 (Homo sapiens, UniProt Q13490); assay: cIAP1-BIR3 fluorescence polarization binding assay
T2 construct: cIAP1-BIR3; Reaction Biology; APT-11-370; purchased Reaction Biology APT-11-370
T2 sequence (Q13490 253-363 limits assumed): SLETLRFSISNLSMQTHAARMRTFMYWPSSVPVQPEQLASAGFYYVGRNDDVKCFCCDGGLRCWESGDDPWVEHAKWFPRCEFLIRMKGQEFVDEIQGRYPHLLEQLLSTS
Source text: as §1, §2

cIAP2-BIR3 = target: T3, cIAP2-BIR3 (Homo sapiens, UniProt Q13489); assay: cIAP2-BIR3 fluorescence polarization binding assay
T3 construct: cIAP2-BIR3; Reaction Biology; APT-11-372; purchased Reaction Biology APT-11-372
T3 sequence (Q13489 238-349 limits assumed): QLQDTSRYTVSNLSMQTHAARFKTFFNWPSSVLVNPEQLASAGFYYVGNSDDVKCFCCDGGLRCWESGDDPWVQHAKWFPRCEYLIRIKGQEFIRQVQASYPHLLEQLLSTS
Source text: as §1, §2

T1 sequence (P98170 241-356 limits assumed): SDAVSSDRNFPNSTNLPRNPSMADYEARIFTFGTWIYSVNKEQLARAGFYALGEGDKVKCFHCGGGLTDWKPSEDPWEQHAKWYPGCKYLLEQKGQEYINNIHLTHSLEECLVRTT

IC50 (XIAP-BIR3)	IC50 (cIAP1-BIR3)	IC50 (cIAP2-BIR3)	Structure (SMILES)
0.1 to 10 nM	0.1 to 10 nM	0.1 to 10 nM	CC[C@H](C)[C@H](NC(=O)[C@H](C)NC)C(=O)N1C[C@@H](OCCCN2CCN(CCCO[C@H]3C[C@@H](C(=O)N[C@@H]4CCCc5ccccc54)N(C(=O)[C@@H](NC(=O)[C@H](C)NC)[C@@H](C)CC)C3)CC2)C[C@H]1C(=O)N[C@@H]1CCCc2ccccc21 [Compound II-G, (2S,4S)-1-[(2S)-3-Methyl-2-[(2S)-2-(methylamino)propanamido]pentanoyl]-4-{3-[4-(3-{[(3S,5S)-1-[(2S)-3-methyl-2-[(2S)-2-(methylamino)propanamido]pentanoyl]-5-{[(1R)-1,2,3,4-tetrahydronaphthalen-1-yl]carbamoyl}pyrrolidin-3-yl]oxy}propyl)piperazin-1-yl]propoxy}-N-[(1R)-1,2,3,4-tetrahydronaphthalen-1-yl]pyrrolidine-2-carboxamide]
10 to 100 nM	0.1 to 10 nM	10 to 100 nM	CN[C@@H](C)C(=O)N[C@H](C(=O)N1C[C@@H](OCCCN2CCN(CCCO[C@H]3C[C@@H](C(=O)N[C@@H]4CCCc5ccccc54)N(C(=O)[C@@H](NC(=O)[C@H](C)NC)C4CCC4)C3)CC2)C[C@H]1C(=O)N[C@@H]1CCCc2ccccc21)C1CCC1 [Compound II-H, (2S,4S)-1-[(2S)-2-Cyclobutyl-2-[(2S)-2-(methylamino)propanamido]acetyl]-4-[3-[4-(3-[[(3S,5S)-1-[(2S)-2-cyclobutyl-2-[(2S)-2-(methylamino)propanamido]acetyl]-5-[[(1R)-1,2,3,4-tetrahydronaphthalen-1-yl]carbamoyl]pyrrolidin-3-yl]oxy]propyl)piperazin-1-yl]propoxy]-N-[(1R)-1,2,3,4-tetrahydronaphthalen-1-yl]pyrrolidine-2-carboxamide]
10 to 100 nM	0.1 to 10 nM	10 to 100 nM	CN[C@@H](C)C(=O)N[C@H](C(=O)N1C[C@@H](OCCC(=O)N2CCN(C(=O)CCO[C@H]3C[C@@H](C(=O)N[C@@H]4CCCc5ccccc54)N(C(=O)[C@@H](NC(=O)[C@H](C)NC)C4CCCCC4)C3)CC2)C[C@H]1C(=O)N[C@@H]1CCCc2ccccc21)C1CCCCC1 [Compound IV, (2S,4S)-1-[(2S)-2-Cyclohexyl-2-[(2S)-2-(methylamino)propanamido]acetyl]-4-{3-[4-(3-{[(3S,5S)-1-[(2S)-2-cyclohexyl-2-[(2S)-2-(methylamino)propanamido]acetyl]-5-{[(1R)-1,2,3,4-tetrahydronaphthalen-1-yl]carbamoyl}pyrrolidin-3-yl]oxy}propanoyl)piperazin-1-yl]-3-oxopropoxy}-N-[(1R)-1,2,3,4-tetrahydronaphthalen-1-yl]pyrrolidine-2-carboxamide]
100 to 1000 nM	0.1 to 10 nM	10 to 100 nM	CN[C@@H](C)C(=O)N[C@@H](C)C(=O)N1C[C@@H](OCCC(=O)N2CCN(C(=O)CCO[C@H]3C[C@@H](C(=O)N[C@@H]4CCCc5ccccc54)N(C(=O)[C@H](C)NC(=O)[C@H](C)NC)C3)CC2)C[C@H]1C(=O)N[C@@H]1CCCc2ccccc21 [Compound IV-A, (2S,4S)-1-[(2S)-2-[(2S)-2-(Methylamino)propanamido]propanoyl]-4-[3-[4-(3-[[(3S,5S)-1-[(2S)-2-[(2S)-2-(methylamino)propanamido]propanoyl]-5-[[(1R)-1,2,3,4-tetrahydronaphthalen-1-yl]carbamoyl]pyrrolidin-3-yl]oxy]propanoyl)piperazin-1-yl]-3-oxopropoxy]-N-[(1R)-1,2,3,4-tetrahydronaphthalen-1-yl]pyrrolidine-2-carboxamide]
100 to 1000 nM	0.1 to 10 nM	10 to 100 nM	CC[C@H](NC(=O)[C@H](C)NC)C(=O)N1C[C@@H](OCCC(=O)N2CCN(C(=O)CCO[C@H]3C[C@@H](C(=O)N[C@@H]4CCCc5ccccc54)N(C(=O)[C@H](CC)NC(=O)[C@H](C)NC)C3)CC2)C[C@H]1C(=O)N[C@@H]1CCCc2ccccc21 [Compound IV-B, (2S, 4S)-1-[(2S)-2-[(2S)-2-(Methylamino)propanamido]butanoyl]-4-[3-[4-(3-[[(3S,5S)-1-[(2S)-2-[(2S)-2-(methylamino)propanamido]butanoyl]-5-[[(1R)-1,2,3,4-tetrahydronaphthalen-1-yl]carbamoyl]pyrrolidin-3-yl]oxy]propanoyl)piperazin-1-yl]-3-oxopropoxy]-N-[(1R)-1,2,3,4-tetrahydronaphthalen-1-yl]pyrrolidine-2-carboxamide]
100 to 1000 nM	0.1 to 10 nM	0.1 to 10 nM	CN[C@@H](C)C(=O)N[C@H](C(=O)N1C[C@@H](OCCC(=O)N2CCN(C(=O)CCO[C@H]3C[C@@H](C(=O)N[C@@H]4CCCc5ccccc54)N(C(=O)[C@@H](NC(=O)[C@H](C)NC)C4CC4)C3)CC2)C[C@H]1C(=O)N[C@@H]1CCCc2ccccc21)C1CC1 [Compound IV-C, (2S,4S)-1-[(2S)-2-Cyclopropyl-2-[(2S)-2-(methylamino)propanamido]acetyl]-4-{3-[4-(3-{[(3S,5S)-1-[(2S)-2-cyclopropyl-2-[(2S)-2-(methylamino)propanamido]acetyl]-5-{[(1R)-1,2,3,4-tetrahydronaphthalen-1-yl]carbamoyl}pyrrolidin-3-yl]oxy}propanoyl)piperazin-1-yl]-3-oxopropoxy}-N-[(1R)-1,2,3,4-tetrahydronaphthalen-1-yl]pyrrolidine-2-carboxamide]
10 to 100 nM	0.1 to 10 nM	10 to 100 nM	CN[C@@H](C)C(=O)N[C@H](C(=O)N1C[C@@H](OCCC(=O)N2CCN(C(=O)CCO[C@H]3C[C@@H](C(=O)N[C@@H]4CCCc5ccccc54)N(C(=O)[C@@H](NC(=O)[C@H](C)NC)C(C)C)C3)CC2)C[C@H]1C(=O)N[C@@H]1CCCc2ccccc21)C(C)C [Compound IV-D, (2S, 4S)-1-[(2S)-3-Methyl-2-[(2S)-2-(methylamino)propanamido]butanoyl]-4-[3-[4-(3-[[(3S,5S)-1-[(2S)-3-methyl-2-[(2S)-2-(methylamino)propanamido]butanoyl]-5-[[(1R)-1,2,3,4-tetrahydronaphthalen-1-yl]carbamoyl]pyrrolidin-3-yl]oxy]propanoyl)piperazin-1-yl]-3-oxopropoxy]-N-[(1R)-1,2,3,4-tetrahydronaphthalen-1-yl]pyrrolidine-2-carboxamide]
10 to 100 nM	0.1 to 10 nM	10 to 100 nM	CN[C@@H](C)C(=O)N[C@H](C(=O)N1C[C@@H](OCCC(=O)N2CCN(C(=O)CCO[C@H]3C[C@@H](C(=O)N[C@@H]4CCCc5ccccc54)N(C(=O)[C@@H](NC(=O)[C@H](C)NC)C4CCC4)C3)CC2)C[C@H]1C(=O)N[C@@H]1CCCc2ccccc21)C1CCC1 [Compound IV-G, (2S,4S)-1-[(2S)-2-Cyclobutyl-2-[(2S)-2-(methylamino)propanamido]acetyl]-4-[3-[4-(3-[[(3S,5S)-1-[(2S)-2-cyclobutyl-2-[(2S)-2-(methylamino)propanamido]acetyl]-5-[[(1R)-1,2,3,4-tetrahydronaphthalen-1-yl]carbamoyl]pyrrolidin-3-yl]oxy]propanoyl)piperazin-1-yl]-3-oxopropoxy]-N-[(1R)-1,2,3,4-tetrahydronaphthalen-1-yl]pyrrolidine-2-carboxamide]
10 to 100 nM	0.1 to 10 nM	0.1 to 10 nM	CN[C@@H](C)C(=O)N[C@H](C(=O)N1C[C@@H](OCCOCCO[C@H]2C[C@@H](C(=O)N[C@@H]3CCCc4ccccc43)N(C(=O)[C@@H](NC(=O)[C@H](C)NC)C3CCCCC3)C2)C[C@H]1C(=O)N[C@@H]1CCCc2ccccc21)C1CCCCC1 [Compound V, (2S,4S)-1-[(2S)-2-Cyclohexyl-2-[(2S)-2-(methylamino)propanamido]acetyl]-4-[2-(2-[[(3S,5S)-1-[(2S)-2-cyclohexyl-2-[(2S)-2-(methylamino)propanamido]acetyl]-5-[[(1R)-1,2,3,4-tetrahydronaphthalen-1-yl]carbamoyl]pyrrolidin-3-yl]oxy]ethoxy)ethoxy]-N-[(1R)-1,2,3,4-tetrahydronaphthalen-1-yl] pyrrolidine-2-carboxamide]
